The species entered for assay [1] is Homo sapiens. Nature of the assay: Inhibition of RNase A (unknown origin) assessed as reduction in tRNA substrate degradation at 0.6 to 1 mM pretreated for 3 hrs followed by substrate addition measured after 30 mins by ethidium bromide staining based agarose gel electrophoresis.
For assay [2], the species on record is Homo sapiens. Nature of the assay: Inhibition of RNase A (unknown origin) assessed as reduction in tRNA substrate degradation at 0.35 to 0.5 mM pretreated for 3 hrs followed by substrate addition measured after 30 mins by ethidium bromide staining based agarose gel electrophoresis.
The species entered for assay [3] is Homo sapiens. The experiment in a line: Inhibition of RNase A (unknown origin) assessed as reduction in tRNA substrate degradation at 0.1 to 0.2 mM pretreated for 3 hrs followed by substrate addition measured after 30 mins by ethidium bromide staining based agarose gel electrophoresis.
The species entered for assay [4] is Homo sapiens. The experiment in a line: Inhibition of RNase A (unknown origin) assessed as reduction in tRNA substrate degradation at 0.1 to 0.15 mM pretreated for 3 hrs followed by substrate addition measured after 30 mins by ethidium bromide staining based agarose gel electrophoresis.
Assay [5] is filed under the species Homo sapiens. Nature of the assay: Inhibition of RNase A (unknown origin) assessed as reduction in tRNA substrate degradation at 0.25 to 0.3 mM pretreated for 3 hrs followed by substrate addition measured after 30 mins by ethidium bromide staining based agarose gel electrophoresis.
The nature of assay [6]: Inhibition of RNase A (unknown origin) using varying levels of 2',3'-cCMP as substrate by Lineweaver-burk plot analysis. Also noted: species or system Homo sapiens.

Structures are written as SMILES. Active and inactive are the calls of the source. No cut-off for these calls is given here.

The term Ki denotes a measure of affinity in units of concentration, obtained from inhibition or displacement. With `CC1(C)O[C@H]2O[C@H](Cn3nncc3[C@H]3O[C@@H]4OC(C)(C)O[C@@H]4[C@H]3OCc3ccccc3)[C@H](O)[C@H]2O1`, the inhibition result in the assay listed under Homo sapiens [1], in the assay filed under Homo sapiens [2], in the assay listed under Homo sapiens [3], in the assay listed under Homo sapiens [4] and in the assay listed under Homo sapiens [5] was “Active” each time. Besides, the affinity in assay [6] corresponds to a Ki of 563 µM.

In assay [6], `Cc1cn([C@@H]2O[C@H](C(=O)N[C@H](CC(=O)O)C(=O)N[C@H]3C[C@H](n4cc(C)c(=O)[nH]c4=O)O[C@@H]3CO)[C@@H](O)[C@H]2O)c(=O)[nH]c1=O` yielded a Ki of 66 µM.

These data come from ChEMBL document CHEMBL4177747, “1,5-Disubstituted 1,2,3-triazole linked disaccharides: Metal-free syntheses and screening of a new class of ribonuclease A inhibitors” (Bioorg Med Chem, 2018).
